Results taken from patent US20260078130A1, “NAMPT MODULATORS, PREPARATIONS, AND USES THEREOF” (SIRONAX LTD., priority 2022, published 2026).

What was measured:
[1] = target: T1, human enzyme NAMPT (full length) (Homo sapiens, UniProt P43490); experiment: NMN fluorescence biochemical assay (stimulation of NMN synthesis by NAMPT); conditions: for EC50: NMN fluorescence assay, purified human NAMPT 100 nM, concentration giving half-maximal activation, read-out: Enzymatic EC50; for Enzymatic Emax: fold change of maximal activation compared to DMSO
T1 construct: human enzyme NAMPT (full length)
T1 sequence (P43490 whole entry): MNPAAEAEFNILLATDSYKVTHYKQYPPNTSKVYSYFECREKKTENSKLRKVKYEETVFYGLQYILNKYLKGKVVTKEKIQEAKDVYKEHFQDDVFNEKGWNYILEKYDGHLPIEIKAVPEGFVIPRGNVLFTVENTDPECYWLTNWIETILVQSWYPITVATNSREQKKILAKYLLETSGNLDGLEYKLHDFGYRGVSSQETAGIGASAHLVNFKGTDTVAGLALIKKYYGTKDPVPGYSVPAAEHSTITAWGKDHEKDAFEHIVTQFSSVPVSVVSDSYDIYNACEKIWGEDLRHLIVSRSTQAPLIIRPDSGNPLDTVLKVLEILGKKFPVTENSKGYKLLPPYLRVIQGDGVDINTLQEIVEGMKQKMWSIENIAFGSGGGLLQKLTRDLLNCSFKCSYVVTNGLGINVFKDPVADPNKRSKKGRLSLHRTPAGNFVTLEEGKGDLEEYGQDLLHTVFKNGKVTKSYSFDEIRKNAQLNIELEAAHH
Procedure, shortened: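 Full-length human NAMPT (100 nM) was preincubated 15 min at 37 °C with compound in 50 mM Tris-HCl pH 7.5, 10 mM MgCl2, 2 mM DTT, then reacted 1 h at 37 °C with 50 μM NAM, 100 μM PRPP, 4 mM ATP (stated solution concentrations). NMN was derivatised with acetophenone/KOH then formic acid and read at Ex/Em 382/445 nm; EC50 and Emax (fold over DMSO) reported.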

[2] = system: endogenous NAMPT in U2OS cells; experiment: Cellular NAD+ modulation assay (NAD/NADH-Glo, U2OS cells); type: cell-based; conditions: Homo sapiens, 24 hours incubation, cellular NAD+; for maximal fold induction: read-out: Cellular Emax
Procedure, shortened: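 NAD/NADH-Glo luminescence quantified NAD+ after acid treatment (60 °C, 15 min) and neutralization of DTAB lysates. Beforehand, U2OS cells seeded 16 h earlier received compound concentration series for 24 h at 37 °C. Values given as half-maximal activation concentration (EC50) and maximal fold change versus DMSO (Emax).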

Compound | EC50 [1] [µM] | Enzymatic Emax [1] | EC50 [2] [µM] | maximal fold induction [2]
COc1ccc(CN2C(=O)c3ccccc3C2Cc2c(C)ncnc2C#N)cc1 (stereo not shown) [Compound 597, 5-((2-(4-methoxybenzyl)-3-oxoisoindolin-1-yl)methyl)-6-methylpyrimidine-4-carbonitrile] | 0.5 to 5 | B (3≥B>2) | < 0.5 | > 1.5
COc1ccc(CN2C(=O)c3ccccc3C2Cc2c(C#N)ccnc2C#N)cn1 (stereo not shown) [Compound 598, 3-((2-((6-methoxypyridin-3-yl)methyl)-3-oxoisoindolin-1-yl)methyl)pyridine-2,4-dicarbonitrile] | 0.5 to 5 | B (3≥B>2) | 0.5 to 5 | > 1.5
COC1CC2(CC(CN3C(=O)c4ccccc4C3Cc3c(Cl)cnn3C)C2)C1 (stereo not shown) [Compound 599, 3-((4-chloro-1-methyl-1H-pyrazol-5-yl)methyl)-2-((6-methoxyspiro[3.3]heptan-2-yl)methyl)isoindolin-1-one] | ≥ 5 | C (2≥C) | 0.5 to 5 | 1.2 to 1.5
COc1ccc(CN2C(=O)c3ccccc3C2Cc2c(Cl)ccc(=O)n2C)cn1 (stereo not shown) [Compound 609, 3-((3-chloro-1-methyl-6-oxo-1,6-dihydropyridin-2-yl)methyl)-2-((6-methoxypyridin-3-yl)methyl)isoindolin-1-one] | 0.5 to 5 | B (3≥B>2) | 0.5 to 5 | > 1.5
Cn1ncc(Cl)c1CC1c2ccccc2CCN1CC1CC2(CNC(=O)O2)C1 (stereo not shown) [Compound 610, 2-((1-((4-chloro-1-methyl-1H-pyrazol-5-yl)methyl)-3,4-dihydroisoquinolin-2(1H)-yl)methyl)-5-oxa-7-azaspiro[3.4]octan-6-one] | ≥ 5 | B (3≥B>2) | 0.5 to 5 | 1.2 to 1.5
Cn1ncc(Cl)c1CC1c2ccccc2C(=O)N1CC1CC2(CNC(=O)N2)C1 (stereo not shown) [Compound 611, 3-((4-chloro-1-methyl-1H-pyrazol-5-yl)methyl)-2-((6-oxo-5,7-diazaspiro[3.4]octan-2-yl)methyl)isoindolin-1-one] | ≥ 5 | C (2≥C) | 5 to 50 | 1.2 to 1.5
COc1ccc(CN2C(=O)c3ncsc3C2Cc2c(Cl)cnn2C)cc1 (stereo not shown) [Compound 615, 6-((4-chloro-1-methyl-1H-pyrazol-5-yl)methyl)-5-(4-methoxybenzyl)-5,6-dihydro-4H-pyrrolo[3,4-d]thiazol-4-one] | ≥ 5 | B (3≥B>2) | 0.5 to 5 | 1.2 to 1.5
COc1ccc(CN2C(=O)c3ccc(OC(F)F)cc3C2Cc2c(Cl)cnn2C)cn1 (stereo not shown) [Compound 619, 3-((4-chloro-1-methyl-1H-pyrazol-5-yl)methyl)-5-(difluoromethoxy)-2-((6-methoxypyridin-3-yl)methyl)isoindolin-1-one] | ≥ 5 | A (A>3) | 0.5 to 5 | > 1.5
COc1ccc(CN2C(=O)c3ccccc3C2(C)Cc2c(Cl)cnn2C)cn1 (stereo not shown) [Compound 620, 3-((4-chloro-1-methyl-1H-pyrazol-5-yl)methyl)-2-((6-methoxypyridin-3-yl)methyl)-3-methylisoindolin-1-one] | ≥ 5 | B (3≥B>2) | 0.5 to 5 | 1.2 to 1.5
COc1ccc(CN2C(=O)c3cnccc3C2Cc2c(C)ccnc2C#N)cc1 (stereo not shown) [Compound 621, 3-((2-(4-methoxybenzyl)-3-oxo-2,3-dihydro-1H-pyrrolo[3,4-c]pyridin-1-yl)methyl)-4-methylpicolinonitrile] | ≥ 5 | B (3≥B>2) | 0.5 to 5 | > 1.5
COc1ccc(CN2C(=O)c3ccc(Br)cc3C2Cc2c(Cl)cnn2C)cn1 (stereo not shown) [Compound 622, 5-bromo-3-((4-chloro-1-methyl-1H-pyrazol-5-yl)methyl)-2-((6-methoxypyridin-3-yl)methyl)isoindolin-1-one] | ≥ 5 | A (A>3) | 0.5 to 5 | > 1.5
COc1ccc(CN2C(=O)c3ccc(C4CC4)cc3C2Cc2c(Cl)cnn2C)cn1 (stereo not shown) [Compound 623, 3-((4-chloro-1-methyl-1H-pyrazol-5-yl)methyl)-5-cyclopropyl-2-((6-methoxypyridin-3-yl)methyl)isoindolin-1-one] | ≥ 5 | A (A>3) | 0.5 to 5 | > 1.5
COc1ccc(CN2C(=O)c3ccc(C4CC4)cc3C2Cc2c(Cl)cnn2C)cc1 (stereo not shown) [Compound 624, 3-((4-chloro-1-methyl-1H-pyrazol-5-yl)methyl)-5-cyclopropyl-2-(4-methoxybenzyl)isoindolin-1-one] | 0.5 to 5 | B (3≥B>2) | 0.5 to 5 | 1.2 to 1.5
COc1ccc(CN2C(=O)c3ccccc3C2Cc2c(Cl)ccn(C)c2=O)cn1 (stereo not shown) [Compound 625, 3-((4-chloro-1-methyl-2-oxo-1,2-dihydropyridin-3-yl)methyl)-2-((6-methoxypyridin-3-yl)methyl)isoindolin-1-one] | 0.5 to 5 | A (A>3) | 0.5 to 5 | > 1.5

Now from value to molecule, other results behind:

EC50 [1] [µM] | Enzymatic Emax [1] | EC50 [2] [µM] | Compound | maximal fold induction [2]
≥ 5 | C (2≥C) | 5 to 50 | Cn1ncc(Cl)c1CC1c2ccccc2C(=O)N1Cc1ccc2nonc2c1 (stereo not shown) [Compound 600, 2-(benzo[c][1,2,5]oxadiazol-5-ylmethyl)-3-((4-chloro-1-methyl-IH-pyrazol-5-yl)methyl)isoindolin-1-one] | ≤ 1.2
0.5 to 5 | A (A>3) | < 0.5 | Cn1ncc(Cl)c1CC1c2ccccc2C(=O)N1C/C(F)=C/c1nn[nH]c1F (stereo not shown) [Compound 601, (Z)-3-((4-chloro-1-methyl-1H-pyrazol-5-yl)methyl)-2-(2-fluoro-3-(5-fluoro-1H-1,2,3-triazol-4-yl)allyl)isoindolin-1-one] | 1.2 to 1.5
≥ 5 | B (3≥B>2) | 0.5 to 5 | Cn1ncc(Cl)c1CC1c2ccccc2C(=O)N1Cc1cc(=O)[nH]o1 (stereo not shown) [Compound 602, 5-((1-((4-chloro-1-methyl-1H-pyrazol-5-yl)methyl)-3-oxoisoindolin-2-yl)methyl)isoxazol-3(2H)-one] | > 1.5
≥ 5 | C (2≥C) | 0.5 to 5 | COc1ncc(CN2C(=O)c3ccccc3C2Cc2c(Cl)cnn2C)o1 (stereo not shown) [Compound 603, 3-((4-chloro-1-methyl-1H-pyrazol-5-yl)methyl)-2-((2-methoxyoxazol-5-yl)methyl)isoindolin-1-one] | 1.2 to 1.5
0.5 to 5 | A (A>3) | < 0.5 | Cn1ncc(Cl)c1CC1c2ccccc2C(=O)N1Cc1cnc(O)o1 (stereo not shown) [Compound 605, 3-((4-chloro-1-methyl-1H-pyrazol-5-yl)methyl)-2-((2-hydroxyoxazol-5-yl)methyl)isoindolin-1-one] | > 1.5
0.5 to 5 | A (A>3) | < 0.5 | Cn1ncc(Cl)c1CC1c2ccccc2C(C)(C)N1C/C=C/c1c[nH]nn1 (stereo not shown) [Compound 606, (E)-2-(3-(1H-1,2,3-triazol-4-yl)allyl)-3-((4-chloro-1-methyl-1H-pyrazol-5-yl)methyl)-1,1-dimethylisoindoline] | > 1.5
≥ 5 | C (2≥C) | 5 to 50 | Cn1ncc(Cl)c1CC1c2ccccc2C(C)(C)N1CC1CC(C(N)=O)C1 (stereo not shown) [Compound 607, 3-((3-((4-chloro-1-methyl-1H-pyrazol-5-yl)methyl)-1,1-dimethylisoindolin-2-yl)methyl)cyclobutane-1-carboxamide] | 1.2 to 1.5
< 0.5 | A (A>3) | 0.5 to 5 | Cn1ncc(Cl)c1CC1c2ccccc2C(C)(C)N1Cc1ccc2[nH]nnc2c1 (stereo not shown) [Compound 608, 5-((3-((4-chloro-1-methyl-IH-pyrazol-5-yl)methyl)-1,1-dimethylisoindolin-2-yl)methyl)-1H-benzo[d][1,2,3]triazole] | > 1.5
< 0.5 | A (A>3) | 0.5 to 5 | Cn1ncc(Cl)c1CC1c2ccccc2C(C)(C)N1Cc1ccc2[nH]c(=O)oc2c1 (stereo not shown) [Compound 613, 6-((3-((4-chloro-1-methyl-1H-pyrazol-5-yl)methyl)-1,1-dimethylisoindolin-2-yl)methyl)benzo[d]oxazol-2(3H)-one] | 1.2 to 1.5
0.5 to 5 | B (3≥B>2) | 5 to 50 | Cn1ncc(Cl)c1CC1c2ccccc2C(C)(C)N1Cc1cnc(O)s1 (stereo not shown) [Compound 614, 5-((3-((4-chloro-1-methyl-1H-pyrazol-5-yl)methyl)-1,1-dimethylisoindolin-2-yl)methyl)thiazol-2-ol] | ≤ 1.2
0.5 to 5 | A (A>3) | < 0.5 | [2H]C([2H])(c1c(Cl)cnn1C)C1c2ccccc2C(C)(C)N1CC1CC2(CNC(=O)O2)C1 (stereo not shown) [Compound 616, 2-((3-((4-chloro-1-methyl-1H-pyrazol-5-yl)methyl-d2)-1,1-dimethylisoindolin-2-yl)methyl)-5-oxa-7-azaspiro[3.4]octan-6-one] | 1.2 to 1.5
